These results are taken from ChEMBL document CHEMBL4725291, “Design, synthesis and biological evaluation of novel glyoxalase I inhibitors possessing diazenylbenzenesulfonamide moiety as potential anticancer agents” (Bioorg Med Chem, 2020).

For experiment [1], the target named is T1, Lactoylglutathione lyase (Homo sapiens, UniProt Q04760). Kind of experiment: Inhibition of recombinant human N-terminal Met and 6-His-tagged Glyoxalase-1 (Ala2 to Met184 residues) at 25 uM using glutathione and methylglyoxal as substrates preincubated for 15 mins followed by enzyme addition by double beam UV-vis spectrophotometric method relative to control.
Target sequence in this assay (Q04760 2-184 limits assumed): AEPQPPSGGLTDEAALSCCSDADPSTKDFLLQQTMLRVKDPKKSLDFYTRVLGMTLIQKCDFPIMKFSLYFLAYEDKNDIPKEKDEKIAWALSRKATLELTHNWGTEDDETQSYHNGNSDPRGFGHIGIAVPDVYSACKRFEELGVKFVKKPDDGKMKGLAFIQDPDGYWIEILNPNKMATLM

Experiment [2] concerns the target T1, Lactoylglutathione lyase. In words: Inhibition of recombinant human N-terminal Met and 6-His-tagged Glyoxalase-1 (Ala2 to Met184 residues) using glutathione and methylglyoxal as substrates preincubated for 15 mins followed by enzyme addition by double beam UV-vis spectrophotometric method.
Target sequence in this assay (Q04760 whole entry): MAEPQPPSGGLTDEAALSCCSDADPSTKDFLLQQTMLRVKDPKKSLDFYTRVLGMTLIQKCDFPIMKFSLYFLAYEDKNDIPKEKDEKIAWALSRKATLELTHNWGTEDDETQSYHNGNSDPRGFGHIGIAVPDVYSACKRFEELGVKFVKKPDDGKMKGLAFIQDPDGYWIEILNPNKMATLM

As for `Cc1ccc(/N=N/c2ccc(N)c3ccccc23)cc1S(N)(=O)=O`, the inhibition on Lactoylglutathione lyase [1] was determined as 24.7%. In addition, at Lactoylglutathione lyase [2], the IC50 came to 95.7 µM.

On to `Oc1ccc(/N=N/c2ccccc2)c2cccnc12`, for which, on Lactoylglutathione lyase [1], the inhibition was 82.8%. Besides, the IC50 at Lactoylglutathione lyase [2] was 9.13 µM.

With `NS(=O)(=O)c1cccc(/N=N/c2ccc(O)c3ncccc23)c1`, the inhibition on Lactoylglutathione lyase [1] is 98.3%. In addition, at Lactoylglutathione lyase [2], the IC50 is 1.36 µM.

Turning to `NS(=O)(=O)c1cccc(/N=N/c2ccc(O)c3ccccc23)c1`, the inhibition at Lactoylglutathione lyase [1] was found to be 38.3%. The IC50 on Lactoylglutathione lyase [2] was determined as 52.2 µM.

For the compound `Cc1ccc(/N=N/c2c(O)ccc3ccccc23)cc1S(N)(=O)=O`, the inhibition on Lactoylglutathione lyase [1] was 34.5%. For the same compound, the IC50 on Lactoylglutathione lyase [2] is 45 µM.

Consider `O=C(O)c1ccc(/N=N/c2ccc(O)c3ncccc23)cc1`, for which the inhibition at Lactoylglutathione lyase [1] was determined as 79.9%. The IC50 on Lactoylglutathione lyase [2] amounted to 4.45 µM.

For the compound `NS(=O)(=O)c1cccc(/N=N/c2cc(C(=O)O)c(O)c3ccccc23)c1`, the inhibition on Lactoylglutathione lyase [1] was determined as 96.5%. Also, the IC50 on Lactoylglutathione lyase [2] is 1.22 µM.

With `O=C(O)c1cccc(/N=N/c2ccc(O)c3ncccc23)c1`, the inhibition at Lactoylglutathione lyase [1] worked out at 90.7%. For the same compound, the IC50 at Lactoylglutathione lyase [2] turned out to be 4.37 µM.

For `Cc1ccc(/N=N/c2ccc(O)c3ncccc23)cc1S(N)(=O)=O`, the inhibition at Lactoylglutathione lyase [1] came to 92.1%. Moreover, the IC50 at Lactoylglutathione lyase [2] is 1.28 µM.

With `Cc1ccc(/N=N/c2ccc(N)c3ccc(O)cc23)cc1S(N)(=O)=O`, on Lactoylglutathione lyase [1], the inhibition stood at 76.4%.

In the case of `Nc1ccc(/N=N/c2cccc(S(N)(=O)=O)c2)c2ccccc12`, on Lactoylglutathione lyase [1], the inhibition came to 28.1%. For the same compound, at Lactoylglutathione lyase [2], the IC50 amounted to 85.8 µM.

As for `Cc1ccc(/N=N/c2ccc(O)c(C(=O)O)c2)cc1S(N)(=O)=O`, the inhibition at Lactoylglutathione lyase [1] turned out to be 67.7%. The IC50 on Lactoylglutathione lyase [2] is 11.5 µM.

Consider `Cc1ccc(/N=N/c2ccc(N)c3cc(O)ccc23)cc1S(N)(=O)=O`, for which the inhibition at Lactoylglutathione lyase [1] was determined as 57.2%. Besides, at Lactoylglutathione lyase [2], the IC50 was 18.9 µM.

For `Cc1ccc(/N=N/c2cc(C(=O)O)c(O)c3ccccc23)cc1S(N)(=O)=O`, at Lactoylglutathione lyase [1], the inhibition stood at 100%. Also, the IC50 at Lactoylglutathione lyase [2] turned out to be 1.13 µM.

On to `NS(=O)(=O)c1cccc(/N=N/c2c(O)ccc3ccccc23)c1`, for which the inhibition at Lactoylglutathione lyase [1] came to 39%. The IC50 at Lactoylglutathione lyase [2] is 37.5 µM.

For `NS(=O)(=O)c1cccc(/N=N/c2cc3ccc(=O)oc3cc2O)c1`, the inhibition at Lactoylglutathione lyase [1] is 64.4%. In addition, at Lactoylglutathione lyase [2], the IC50 is 18.9 µM.

As to `NS(=O)(=O)c1cccc(/N=N/c2ccc(O)cc2)c1`, at Lactoylglutathione lyase [1], the inhibition amounted to 59.9%. The IC50 at Lactoylglutathione lyase [2] was 13.4 µM.

With `Nc1ccc(/N=N/c2cccc(S(N)(=O)=O)c2)c2ccc(O)cc12`, the inhibition at Lactoylglutathione lyase [1] came out at 66%. Further, the IC50 on Lactoylglutathione lyase [2] is 21.8 µM.

Turning to `Cc1ccc(/N=N/c2cc3ccccc3c(C=O)c2O)cc1S(N)(=O)=O`, at Lactoylglutathione lyase [1], the inhibition turned out to be 57.4%. Moreover, the concentration for half-maximal inhibition (IC50) at Lactoylglutathione lyase [2] is 18.6 µM.

Turning to `Cc1ccc(/N=N/c2cc3ccc(=O)oc3cc2O)cc1S(N)(=O)=O`, the inhibition on Lactoylglutathione lyase [1] is 59%. For the same compound, the IC50 on Lactoylglutathione lyase [2] is 17.8 µM.

Consider `NS(=O)(=O)c1cccc(/N=N/c2ccc(O)c(C(=O)O)c2)c1`, for which the inhibition on Lactoylglutathione lyase [1] worked out at 76.5%. Also, on Lactoylglutathione lyase [2], the IC50 amounted to 8.66 µM.

Consider `Cc1ccc(/N=N/c2cc3ccccc3c(C(=O)O)c2O)cc1S(N)(=O)=O`, for which the IC50 on Lactoylglutathione lyase [2] is more than 100 µM.

Turning to `Cc1ccc(/N=N/c2c(O)ccc3cccc(N)c23)cc1S(N)(=O)=O`, at Lactoylglutathione lyase [1], the inhibition came out at 54%. For the same compound, the IC50 at Lactoylglutathione lyase [2] is 24 µM.

In the case of `Cc1ccc(/N=N/c2ccc(N)c3cccc(O)c23)cc1S(N)(=O)=O`, the IC50 on Lactoylglutathione lyase [2] was more than 100 µM.

Consider `O=S(=O)(O)c1ccc(/N=N/c2ccc(O)c3ncccc23)cc1`, for which the inhibition at Lactoylglutathione lyase [1] was determined as 75%. For the same compound, the IC50 at Lactoylglutathione lyase [2] worked out at 9.7 µM.

Broadly, the inhibition is the share of the control response that was lost under treatment. In general, IC50 refers to the midpoint of a concentration-inhibition curve.
